Test results reported in PubChem BioAssay (NCI).
Where “and” joins values, the source holds several entries; their conditions need not be identical. Equal entries are not always repeated.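 Test compounds were applied to cells in 96-well plates for 48 hours at 5 doses. Abbreviation: GI50, concentration required for 50% inhibition of growth. TGI: concentration producing complete growth inhibition.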

How the values were obtained:
Assay in all cases: NCI-60 cell line screen, 48 h
SN12C renal = test system: SN12C renal
MOLT-4 leukemia = test system: MOLT-4 leukemia
SK-OV-3 ovarian = test system: SK-OV-3 ovarian
IGROV1 ovarian = test system: IGROV1 ovarian
SK-MEL-28 melanoma = test system: SK-MEL-28 melanoma
M14 melanoma = test system: M14 melanoma
MCF7 breast = test system: MCF7 breast
SW-620 colon = test system: SW-620 colon
HCT-15 colon = test system: HCT-15 colon
BT-549 breast = test system: BT-549 breast

Compound | TGI (SN12C renal) | TGI (MOLT-4 leukemia) [µM] | TGI (SK-OV-3 ovarian) | TGI (IGROV1 ovarian) [µM] | TGI (SK-MEL-28 melanoma) | TGI (M14 melanoma) | TGI (MCF7 breast) [µM] | TGI (SW-620 colon) | TGI (HCT-15 colon) [µM] | TGI (BT-549 breast) [µM] | GI50 (SN12C renal) [µM] | GI50 (MOLT-4 leukemia) | GI50 (SK-OV-3 ovarian) | GI50 (SK-MEL-28 melanoma) [µM] | GI50 (M14 melanoma) | GI50 (BT-549 breast) [µM] | GI50 (MCF7 breast) [µM] | GI50 (SW-620 colon) | GI50 (HCT-15 colon) | GI50 (IGROV1 ovarian) [µM]
CC(=O)O[C@H]1C(=O)[C@@]2(C)C(C(OC(=O)c3ccccc3)[C@]3(O)CC(OC(=O)[C@H](OC(=O)CCC(=O)O)C(NC(=O)c4ccccc4)c4ccccc4)C(C)=C1C3(C)C)C1(OC(C)=O)COC1C[C@@H]2OC(=O)CCC(=O)O (some centres not stated) | > 100 µM | > 20.6 | > 100 µM | > 100 | 86.9 µM | > 100 µM | > 100 | > 100 µM | > 100 |  |  |  |  |  |  |  |  |  |  | 
O=c1c2ccccc2c2ccccc2c(=O)n1-c1cc2c3ccccc3ccc2c2ccccc12 | > 100 µM |  | > 100 µM | > 100 | > 100 µM | > 100 µM | > 100 | > 100 µM | > 100 | > 100 |  |  |  |  |  |  |  |  |  | 
CCOP(=O)(OCC)C(NC(c1ccccc1)c1ccccc1)c1ccccc1 (configuration not stated) | 32.6 µM | 3.47 | 52 µM |  | > 100 µM | 28.6 µM | 31.9 | 31.7 µM | 27.6 | 34.6 | 16.8 | 0.0995 µM | 24.3 µM | 41.1 | 15.3 µM | 15.4 | 15.9 | 15 µM | 13.7 µM | 
Cc1cn(C2CC(F)C(CO)O2)c(=O)[nH]c1=O (configuration not stated) | > 100 µM | > 100 | > 100 µM | > 100 | > 100 µM | > 100 µM | > 100 |  | > 100 | > 100 | > 100 | > 100 µM | > 100 µM | > 100 | > 100 µM | > 100 | > 100 |  | > 100 µM | > 100
CC1OC(n2ncc(=O)[nH]c2=O)C=CC1=O (configuration not stated) | > 100 µM | > 100 | > 100 µM | > 100 | 93.8 µM and 46 µM | > 100 µM and 60.5 µM |  | > 100 µM | > 100 |  |  | 81.1 µM and 30.2 µM | > 100 µM and 29.3 µM |  | 89.4 µM and 20.5 µM |  |  | > 100 µM and 44.1 µM | 90.5 µM and 34.6 µM | 
O=c1cc(C(F)(F)F)c2cc3c(cc2o1)NCCC3 | > 100 µM | > 100 |  | > 100 | > 100 µM | > 100 µM | > 100 | > 100 µM | > 100 | > 100 |  |  |  |  |  |  |  |  |  | 
COc1ccc(/C=N/N=C(\N)NO)cc1OC | > 100 µM | > 100 | > 100 µM | > 100 | > 100 µM | 96.9 µM |  | > 100 µM | > 100 |  |  |  |  |  |  |  |  |  |  | 
O=C1C(Cl)=C(Cl)C(=O)N1C1C2CC3CC(C2)CC1C3 (configuration not stated) | > 100 µM | > 83.3 | > 100 µM | > 100 | > 100 µM | > 100 µM |  | > 100 µM | > 100 |  |  |  |  |  |  |  |  |  |  | 
C/C(O)=C(\N=O)C(=O)NCCc1ccccc1 | > 100 µM | > 100 | > 100 µM | > 100 | > 100 µM | > 100 µM |  | > 55.2 µM | > 55.9 |  |  |  |  |  |  |  |  |  |  | 
CC(=O)OC1C(=O)C(O)C(C)OC1O[C@@H]1C[C@@]2(C)[C@@H]3CC=C4[C@@H](C[C@H](O)C(=O)C4(C)C)[C@]3(C)C(=O)C[C@]2(C)[C@H]1[C@@](C)(O)C(=O)/C=C/C(C)(C)O (some centres not stated) | > 10 µM | > 10 | > 9.33 µM | 4.62 | 0.803 µM | > 10 µM |  | 9.85 µM | > 9.45 |  |  |  |  |  |  |  |  |  |  | 
O=C1c2cccc3cc([N+](=O)[O-])cc(c23)C(=O)N1CCNCCNCCNCCN1C(=O)c2cccc3cc([N+](=O)[O-])cc(c23)C1=O | 2.77 µM and 2.65 µM | 1.13 | 0.341 µM and 0.598 µM | 0.205 | 0.338 µM and 0.279 µM | 0.161 µM |  | 0.449 µM and 0.534 µM | 1.08 |  | 0.0367 |  | 0.0273 µM |  |  |  |  |  |  | 
Cc1cccc(C(C)(C)C)c1NC(=O)C(=O)C(C(=O)/C=C\c1ccccc1)C1OC(=O)c2ccccc21 (configuration not stated) | > 100 µM | > 100 | > 100 µM | > 100 | > 100 µM | > 100 µM |  | > 100 µM | > 100 |  |  |  |  |  |  |  |  |  |  | 
COc1cc(Nc2nc3cc(N)cc(N)c3nc2-c2ccccc2)cc(OC)c1 | > 100 µM |  | 40.2 µM | 17.1 | 89.3 µM | 34.8 µM | 27.1 | > 100 µM | > 100 | 31.8 | 8.62 |  | 6.55 µM | 14.7 | 14.2 µM | 4.69 | 7.86 | 27.2 µM | 20 µM | 2.7
CC(C)N(C(=O)C12C3C4C5(C#N)C3C1(I)C5C42I)C(C)C (configuration not stated) | > 100 µM | > 100 | > 100 µM | > 100 | > 100 µM | > 100 µM |  | > 53.1 µM | > 57.7 |  |  |  |  |  |  |  |  |  |  | 
CC[C@]1(O)CC2CN(CCc3c([nH]c4ccccc34)[C@@](C(=O)OC)(c3cc4c(cc3OC)N(C)[C@H]3[C@@](O)(C(=O)OC)[C@H](OC(C)=O)[C@]5(CC)C=CCN6CC[C@]43[C@@H]65)C2)C1 (some centres not stated) | > 37.3 µM | 0.721 | 0.00977 µM | > 30 |  | 0.0417 µM | 6.07 | 8.54 µM | > 21.3 | 0.595 | < 0.005 | < 0.005 µM | < 0.005 µM |  | < 0.005 µM | 0.00538 | < 0.005 | < 0.005 µM | 0.0588 µM | 0.00517
CCCCCCCCCC(=O)CC(=O)c1ccc(O)cc1O | 74.4 µM | 49.7 | > 100 µM | > 100 | > 100 µM | 54.7 µM |  | > 100 µM | > 100 |  |  |  |  |  |  |  |  |  |  | 
O=S(=O)([O-])c1cccc2cccc(N=Cc3ccccc3[O-])c12.O=S(=O)([O-])c1cccc2cccc(N=Cc3ccccc3[O-])c12.[O]=[U]=[O] | > 100 µM | > 100 | > 100 µM | > 100 | > 100 µM | > 100 µM |  | > 100 µM | > 100 |  | > 100 | 29 µM | > 100 µM | > 100 | 43 µM |  |  | 42.1 µM | 49 µM | 70.6
COCCn1cc(-c2csc(-c3c[nH]c4ccccc34)n2)c2cccnc21 | > 100 µM |  | > 100 µM | > 100 | > 100 µM | > 100 µM | > 100 | > 100 µM | > 100 | > 100 | > 100 |  | 14.8 µM | 8.18 | 3.22 µM | 4.45 | 1.74 | 3.52 µM | 2.34 µM | 2.53
